Patent publication US20080176810A1, “Use of 3, 4', 5-Trihydroxy-Stilbene-3-Beta-D-glucoside in Prepartion of Medicines For Treating and/or Preventing Ischemic Heart Disease” (SHENZHEN NEPTUNUS PHARMACEUTICAL CO., LTD., priority 2004, published 2008)

Test system: anesthetized dogs
Test: Myocardial oxygen consumption, coronary flow, cardiac output in anesthetized dogs, iv
Assay type: in vivo
Details: c3-c8 5,15,30,60,90,120 min after administration; for coronary artery resistance, x ± s / myocardial oxygen consumption, x ± s / total peripheral resistance (TPR), x ± s / cardiac output, x ± s / myocardial oxygen uptake, x ± s: c2 0 min before
Experimental: Isosorbide Dinitrate control group were medicated by continuous intravenous infusion and other groups by intravenous injection.
The animals were anesthetised with 3% pentobarbital sodium iv at the dose of 30 mg/kg. Tracheal intubation was performed and SC-M5 anesthesia respirator (manufactured by Shanghai Medical Instrument Factory, frequency: 16˜18 per min, tidal volume: 350˜550 ml) was connected. Bilateral femoral arteries were separated for blood sampling and analyzing and measurement of mean blood pressure. Thoracotomy at the fourth intercostal space was performed to expose the heart and to open the pericardium to make pericardial hammock. Ascending aortic root and upper part of left branch of anterior descending coronary artery were dissociated to put respectively probes of electromagnetic flowmeter (MFV-1100/1200, made by Japanese Nihon Kohden Company) to measure cardiac output and coronary artery flow rate. Right jugular vein was separated for insertion of a cardiac catheter that was guided into coronary venous sinuses before fixation. Synchronously, blood was sampled by drawing from coronary sinus and femoral artery (0.5% heparin was added for anticoagulation). pO2 and pH were detected with a blood gas analyzer (DH-1830 Blood Gas Acid-base Analyze, Nanjing Ananalysis Apparatus Factor) and the values were converted to artery and venous oxygen content. After intravenous infusion of control solvent or the drug, constant infusion for all groups was completed with an electronic constant flow pump (SH-88AB Controllable Intravenous Injector made by Quanzhou Lizhong Electronic Medical Instrument Factory). Both artery and venous blood gas before administration or 5, 15, 30, 60, 90 and 120 min after administration was analyzed and mean blood pressure and cardiac output at 0, 5, 15, 30, 60, 90 and 120 min were observed.
Myocardial oxygen consumption(ml/min/100 g)=coronary flow ml/min/100 g×artery oxygen−coronary sinus oxygen ml %).
Myocardial oxygen uptake (%)=(artery oxygen ml %−coronary sinus oxygen ml %)/artery oxygen ml %
Total peripheral resistance of general circulation(dyn·s·cm−5)=mean arterial blood pressure[MAP(KPa)]×80/cardiac output[CO(L/min)]=mean arterial blood pressure[MAP(mmHg)]×10.6/cardiac output[CO(L/min)]
Coronary resistance[Kpa/ml/min]=mean arterial blood pressure[MAP(KPa)]/coronary artery flow.

[1] = TSG 2.5 mg/kg iv, 0 min, before administration
[2] = TSG 2.5 mg/kg iv, 5 min after administration
[3] = TSG 2.5 mg/kg iv, 15 min after administration
[4] = TSG 2.5 mg/kg iv, 30 min after administration
[5] = TSG 2.5 mg/kg iv, 60 min after administration
[6] = TSG 2.5 mg/kg iv, 90 min after administration
[7] = TSG 2.5 mg/kg iv, 120 min after administration
[8] = TSG 2.5 mg/kg iv, before administration, 0 min
[9] = TSG 5 mg/kg iv, 0 min, before administration
[10] = TSG 5 mg/kg iv, 5 min after administration
[11] = TSG 5 mg/kg iv, 15 min after administration
[12] = TSG 5 mg/kg iv, 30 min after administration
[13] = TSG 5 mg/kg iv, 60 min after administration
[14] = TSG 5 mg/kg iv, 90 min after administration
[15] = TSG 5 mg/kg iv, 120 min after administration

Q: For “3,4′,5-trihydroxy-stilbene-3-β-D-glucoside [TSG]”, which “coronary artery resistance, x ± s” value [1] is on record?
A: The value was 0.268 ± 0.050 Kpa/ml/min.

Q: What about the “myocardial oxygen consumption, x ± s” value [1] of the same substance?
A: Its value is 214.6 ± 5.24 mL/min.100 g^−1.

Q: And the “total peripheral resistance (TPR), x ± s” value [1]?
A: The value was 888.8 ± 200.9 dyn·s·cm^−5.

Q: And the “cardiac output, x ± s” value [2]?
A: The value was 1.09 ± 0.12 L/min.

Q: And the “coronary artery resistance, x ± s” value [2]?
A: Its value is 0.269 Kpa/ml/min.

Q: And the “myocardial oxygen consumption, x ± s” value [2]?
A: The value was 215.5 ± 8.73 mL/min.100 g^−1.

Q: What about the “myocardial oxygen uptake, x ± s” value [2] of the same substance?
A: The value was 77.4%.

Q: And the “total peripheral resistance (TPR), x ± s” value [2]?
A: Its value is 873.5 ± 210.3 dyn·s·cm^−5.

Q: And the “cardiac output, x ± s” value [3]?
A: Its value is 1.09 ± 0.14 L/min.

Q: And the “coronary artery resistance, x ± s” value [3]?
A: Its value is 0.266 ± 0.049 Kpa/ml/min.

Q: What about the “total peripheral resistance (TPR), x ± s” value [3] of the same substance?
A: Its value is 888.7 ± 208.8 dyn·s·cm^−5.

Q: What about the “cardiac output, x ± s” value [4] of the same substance?
A: The value was 1.10 ± 0.13 L/min.

Q: And the “coronary artery resistance, x ± s” value [4]?
A: Its value is 0.257 ± 0.054 Kpa/ml/min.

Q: And the “myocardial oxygen consumption, x ± s” value [4]?
A: Its value is 218.2 ± 6.85 mL/min.100 g^−1.

Q: And the “myocardial oxygen uptake, x ± s” value [4]?
A: The value was 74.2 ± 5.11%.

Q: And the “total peripheral resistance (TPR), x ± s” value [4]?
A: Its value is 869.1 ± 249.3 dyn·s·cm^−5.

Q: What about the “cardiac output, x ± s” value [5] of the same substance?
A: The value was 1.11 ± 0.13 L/min.

Q: And the “coronary artery resistance, x ± s” value [5]?
A: The value was 0.261 ± 0.051 Kpa/ml/min.

Q: And the “myocardial oxygen consumption, x ± s” value [5]?
A: The value was 218.0 ± 8.95 mL/min.100 g^−1.

Q: And the “myocardial oxygen uptake, x ± s” value [5]?
A: Its value is 73.1 ± 6.16%.

Q: And the “total peripheral resistance (TPR), x ± s” value [5]?
A: Its value is 890.2 ± 240.3 dyn·s·cm^−5.

Q: And the “coronary artery resistance, x ± s” value [6]?
A: The value was 0.267 ± 0.054 Kpa/ml/min.

Q: And the “myocardial oxygen consumption, x ± s” value [6]?
A: The value was 214.1 ± 8.39 mL/min.100 g^−1.

Q: And the “myocardial oxygen uptake, x ± s” value [6]?
A: The value was 75.0 ± 6.24%.

Q: And the “total peripheral resistance (TPR), x ± s” value [6]?
A: Its value is 877.6 ± 225.1 dyn·s·cm^−5.

Q: And the “cardiac output, x ± s” value [7]?
A: The value was 1.10 ± 0.14 L/min.

Q: And the “coronary artery resistance, x ± s” value [7]?
A: Its value is 0.271 ± 0.055 Kpa/ml/min.

Q: And the “total peripheral resistance (TPR), x ± s” value [7]?
A: The value was 868.6 ± 221.8 dyn·s·cm^−5.

Q: And the “cardiac output, x ± s” value [8]?
A: The value was 1.06 ± 0.13 L/min.

Q: What about the “myocardial oxygen uptake, x ± s” value [8] of the same substance?
A: Its value is 76.9 ± 5.50%.

Q: What about the “cardiac output, variation %” value [2] of the same substance?
A: Its value is 2.50 ± 2.42%.

Q: And the “coronary artery resistance, variation %” value [2]?
A: Its value is 0.81%.

Q: And the “myocardial oxygen consumption, variation %” value [2]?
A: Its value is 0.40 ± 3.16%.

Q: And the “myocardial oxygen uptake, variation %” value [2]?
A: Its value is 0.72%.

Q: What about the “total peripheral resistance (TPR), variation %” value [2] of the same substance?
A: Its value is −1.89 ± 6.74%.

Q: And the “cardiac output, variation %” value [3]?
A: Its value is 1.97 ± 1.55%.

Q: And the “coronary artery resistance, variation %” value [3]?
A: The value was −0.34 ± 2.36%.

Q: And the “total peripheral resistance (TPR), variation %” value [3]?
A: Its value is −0.10 ± 4.21%.

Q: And the “cardiac output, variation %” value [4]?
A: Its value is 3.88 ± 3.48%.

Q: What about the “coronary artery resistance, variation %” value [4] of the same substance?
A: Its value is −3.82 ± 9.83%.

Q: What about the “myocardial oxygen consumption, variation %” value [4] of the same substance?
A: The value was 1.66 ± 1.48%.

Q: What about the “myocardial oxygen uptake, variation %” value [4] of the same substance?
A: The value was −3.47 ± 1.59%.

Q: What about the “total peripheral resistance (TPR), variation %” value [4] of the same substance?
A: Its value is −3.22 ± 9.65%.

Q: And the “cardiac output, variation %” value [5]?
A: The value was 4.41 ± 1.40%.

Q: What about the “coronary artery resistance, variation %” value [5] of the same substance?
A: Its value is −2.48 ± 8.17%.

Q: What about the “myocardial oxygen consumption, variation %” value [5] of the same substance?
A: Its value is 1.57 ± 2.94%.

Q: And the “myocardial oxygen uptake, variation %” value [5]?
A: Its value is −4.99 ± 3.01 %.

Q: And the “total peripheral resistance (TPR), variation %” value [5]?
A: The value was −0.56 ± 7.52%.

Q: What about the “cardiac output, variation %” value [6] of the same substance?
A: Its value is 4.40 ± 1.64%.

Q: And the “coronary artery resistance, variation %” value [6]?
A: Its value is −0.24 ± 10.72%.

Q: What about the “myocardial oxygen consumption, variation %” value [6] of the same substance?
A: Its value is −0.25 ± 2.84%.

Q: What about the “myocardial oxygen uptake, variation %” value [6] of the same substance?
A: Its value is −2.58 ± 2.67 %.

Q: What about the “total peripheral resistance (TPR), variation %” value [6] of the same substance?
A: Its value is −1.52 ± 9.42%.

Q: And the “cardiac output, variation %” value [7]?
A: Its value is 3.23 ± 2.57%.

Q: What about the “coronary artery resistance, variation %” value [7] of the same substance?
A: The value was 1.19 ± 6.55%.

Q: What about the “total peripheral resistance (TPR), variation %” value [7] of the same substance?
A: Its value is −2.58 ± 7.26%.

Q: What about the “coronary artery resistance, x ± s” value [9] of the same substance?
A: Its value is 0.299 ± 0.029 Kpa/ml/min.

Q: And the “myocardial oxygen consumption, x ± s” value [9]?
A: Its value is 211.4 ± 4.05 mL/min.100 g^−1.

Q: And the “total peripheral resistance (TPR), x ± s” value [9]?
A: The value was 906.3 ± 193.9 dyn·s·cm^−5.

Q: What about the “cardiac output, x ± s” value [10] of the same substance?
A: The value was 1.13 ± 0.12 L/min.

Q: What about the “coronary artery resistance, x ± s” value [10] of the same substance?
A: Its value is 0.308 Kpa/ml/min.

Q: And the “myocardial oxygen consumption, x ± s” value [10]?
A: Its value is 210.4 ± 6.48 mL/min.100 g^−1.

Q: And the “myocardial oxygen uptake, x ± s” value [10]?
A: Its value is 79.6%.

Q: What about the “total peripheral resistance (TPR), x ± s” value [10] of the same substance?
A: Its value is 897.1 ± 184.7 dyn·s·cm^−5.

Q: And the “cardiac output, x ± s” value [11]?
A: Its value is 1.13 ± 0.13 L/min.

Q: What about the “coronary artery resistance, x ± s” value [11] of the same substance?
A: The value was 0.305 ± 0.029 Kpa/ml/min.

Q: And the “total peripheral resistance (TPR), x ± s” value [11]?
A: Its value is 916.6 ± 186.2 dyn·s·cm^−5.

Q: And the “cardiac output, x ± s” value [12]?
A: The value was 1.15 ± 0.14 L/min.

Q: And the “coronary artery resistance, x ± s” value [12]?
A: The value was 0.299 ± 0.026 Kpa/ml/min.

Q: And the “myocardial oxygen consumption, x ± s” value [12]?
A: Its value is 210.2 ± 8.65 mL/min.100 g^−1.

Q: And the “myocardial oxygen uptake, x ± s” value [12]?
A: Its value is 74.8 ± 5.66%.

Q: And the “total peripheral resistance (TPR), x ± s” value [12]?
A: Its value is 915.2 ± 199.9 dyn·s·cm^−5.

Q: What about the “cardiac output, x ± s” value [13] of the same substance?
A: Its value is 1.16 ± 0.14 L/min.

Q: And the “coronary artery resistance, x ± s” value [13]?
A: The value was 0.288 ± 0.026 Kpa/ml/min.

Q: And the “myocardial oxygen consumption, x ± s” value [13]?
A: The value was 212.9 ± 7.2 mL/min.100 g^−1.

Q: What about the “myocardial oxygen uptake, x ± s” value [13] of the same substance?
A: The value was 74.5 ± 6.05%.

Q: And the “total peripheral resistance (TPR), x ± s” value [13]?
A: The value was 907.8 ± 194.0 dyn·s·cm^−5.

Q: And the “cardiac output, x ± s” value [14]?
A: The value was 1.16 ± 0.13 L/min.

Q: What about the “coronary artery resistance, x ± s” value [14] of the same substance?
A: Its value is 0.287 ± 0.028 Kpa/ml/min.

Q: And the “myocardial oxygen consumption, x ± s” value [14]?
A: The value was 209.6 ± 9.01 mL/min.100 g^−1.

Q: And the “myocardial oxygen uptake, x ± s” value [14]?
A: The value was 75.1 ± 6.48%.

Q: What about the “total peripheral resistance (TPR), x ± s” value [14] of the same substance?
A: Its value is 891.7 ± 188.6 dyn·s·cm^−5.

Q: What about the “cardiac output, x ± s” value [15] of the same substance?
A: The value was 1.14 ± 0.13 L/min.

Q: What about the “coronary artery resistance, x ± s” value [15] of the same substance?
A: The value was 0.287 ± 0.031 Kpa/ml/min.

Q: What about the “total peripheral resistance (TPR), x ± s” value [15] of the same substance?
A: The value was 881.8 ± 188.9 dyn·s·cm^−5.
